From ChEMBL document CHEMBL1201862, “PubChem BioAssay data set” (2004)
Calls of active or inactive are those of the source. Unless noted, the rule behind the calls is not given here.

Assays:
Type in all cases: functional
[1] = cytotoxicity in HPDE-C7 cells, cell-based, fluorescence, HTS (AID 430); details: Homo sapiens
Protein RecA = target: T1, Protein RecA (Mycobacterium tuberculosis, UniProt P9WHJ3); test: Fluorescence Cell-Free Homogeneous Dose Retest to Identify Inhibitors of RecA-Intein Splicing Activity. [Related pubchem assays (depositor defined):AID2097, AID2223, AID489010, AID492950]
T1 sequence (P9WHJ3 whole entry): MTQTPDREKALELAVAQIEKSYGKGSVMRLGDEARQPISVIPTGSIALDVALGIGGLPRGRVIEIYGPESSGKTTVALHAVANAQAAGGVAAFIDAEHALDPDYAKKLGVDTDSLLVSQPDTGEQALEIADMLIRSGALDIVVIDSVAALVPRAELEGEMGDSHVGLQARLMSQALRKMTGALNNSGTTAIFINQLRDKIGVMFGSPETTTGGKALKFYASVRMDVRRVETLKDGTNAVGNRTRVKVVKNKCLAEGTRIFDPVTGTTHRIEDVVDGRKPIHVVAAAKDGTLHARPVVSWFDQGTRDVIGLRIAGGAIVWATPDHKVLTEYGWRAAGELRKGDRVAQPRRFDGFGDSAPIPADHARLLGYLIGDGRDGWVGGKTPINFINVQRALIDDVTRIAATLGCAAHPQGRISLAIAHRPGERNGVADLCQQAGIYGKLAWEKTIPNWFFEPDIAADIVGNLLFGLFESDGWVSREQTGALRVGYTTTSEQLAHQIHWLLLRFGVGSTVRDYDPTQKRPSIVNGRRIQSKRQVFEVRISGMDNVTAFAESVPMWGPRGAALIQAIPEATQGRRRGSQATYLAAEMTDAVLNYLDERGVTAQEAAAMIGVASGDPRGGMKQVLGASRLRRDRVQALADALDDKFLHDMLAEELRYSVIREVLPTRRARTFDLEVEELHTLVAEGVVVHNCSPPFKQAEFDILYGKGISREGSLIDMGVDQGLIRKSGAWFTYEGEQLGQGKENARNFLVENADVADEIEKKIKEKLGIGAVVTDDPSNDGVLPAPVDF

[2] = target: T2, Heat shock factor protein 1 (Mus musculus, UniProt P38532); test: HSF1 potentiators in luciferase reporter cells, confirmation, cell-based, NIH3T3, luminescence, dose retest (AID 435004);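 also: stress induced by proteasome inhibitor MG132 added 30 min after compound; luciferase reporter driven by HSF1 response element in NIH3T3 cells; actives raise luminescence as potentiators of the MG132 stress response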
T2 sequence (P38532 whole entry): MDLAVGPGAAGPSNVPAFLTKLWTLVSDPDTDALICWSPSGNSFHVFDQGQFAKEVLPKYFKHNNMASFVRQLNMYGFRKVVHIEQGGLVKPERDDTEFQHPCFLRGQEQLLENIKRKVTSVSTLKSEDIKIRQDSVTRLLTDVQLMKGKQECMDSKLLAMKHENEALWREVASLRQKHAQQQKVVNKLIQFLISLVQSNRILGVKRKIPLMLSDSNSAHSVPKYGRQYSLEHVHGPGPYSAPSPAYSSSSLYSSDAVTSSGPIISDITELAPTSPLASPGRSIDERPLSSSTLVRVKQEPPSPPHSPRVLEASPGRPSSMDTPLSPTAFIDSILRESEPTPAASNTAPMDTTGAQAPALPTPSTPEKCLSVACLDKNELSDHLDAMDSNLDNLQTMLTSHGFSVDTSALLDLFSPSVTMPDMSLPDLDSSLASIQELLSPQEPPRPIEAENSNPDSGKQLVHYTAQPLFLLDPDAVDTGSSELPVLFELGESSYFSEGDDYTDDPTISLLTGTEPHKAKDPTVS

[3] = nonselective inhibitors of cellular cAMP signaling, dose response, counter-screen for MC4R biased antagonist project, cell-based, TR-FRET cAMP detection (AID 602305);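 also: U2OS cells stimulated with forskolin near its EC80 as the cAMP inducer; potency is for inhibition of forskolin-stimulated cAMP signaling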
[4] = inhibitors of PGC1a acetylation in cells, dose response, cell-based, cherry-picked samples (AID 720514);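 also: potency may reflect raised or lowered acetylation signal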
Fatty acid synthase [5] = target: T3, Fatty acid synthase (Homo sapiens, UniProt P49327); test: FAS thioesterase domain inhibitors, dose response, biochemical, kinetic fluorescence intensity (AID 624326);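 also: rate of fluorescence rise from hydrolysis of a fluorogenic O-methyl fluorescein ester substrate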
[6] = target: T4, Sphingosine 1-phosphate receptor 1 (Homo sapiens, UniProt P21453)
[7] = target: T5, Sphingosine 1-phosphate receptor 4 (Homo sapiens, UniProt O95977); test: Fluorescence dose response cell-based high throughput screening assay for antagonists of the Sphingosine 1-Phosphate Receptor 4 (S1P4). [Related pubchem assays: 1524 (Confirmation in triplicates.), 1510 (Primary screen.)]
T5 sequence (O95977 whole entry): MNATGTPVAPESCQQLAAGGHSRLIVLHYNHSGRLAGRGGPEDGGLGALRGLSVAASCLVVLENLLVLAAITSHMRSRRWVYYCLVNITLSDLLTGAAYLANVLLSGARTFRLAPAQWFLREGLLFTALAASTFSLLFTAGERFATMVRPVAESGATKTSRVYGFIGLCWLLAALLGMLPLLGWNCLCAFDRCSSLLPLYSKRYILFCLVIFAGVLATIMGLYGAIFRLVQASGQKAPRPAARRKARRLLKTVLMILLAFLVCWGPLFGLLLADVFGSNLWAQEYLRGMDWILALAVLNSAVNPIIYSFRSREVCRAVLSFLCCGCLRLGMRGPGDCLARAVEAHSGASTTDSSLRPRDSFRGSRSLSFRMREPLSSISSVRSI

[8] = target: T6, Replicative DNA helicase DnaB (Mycobacterium tuberculosis, UniProt P9WMR3); test: DnaB intein splicing inhibitors, dose response, biochemical, cell-free fluorescence (AID 449749)
T6 sequence (P9WMR3 whole entry): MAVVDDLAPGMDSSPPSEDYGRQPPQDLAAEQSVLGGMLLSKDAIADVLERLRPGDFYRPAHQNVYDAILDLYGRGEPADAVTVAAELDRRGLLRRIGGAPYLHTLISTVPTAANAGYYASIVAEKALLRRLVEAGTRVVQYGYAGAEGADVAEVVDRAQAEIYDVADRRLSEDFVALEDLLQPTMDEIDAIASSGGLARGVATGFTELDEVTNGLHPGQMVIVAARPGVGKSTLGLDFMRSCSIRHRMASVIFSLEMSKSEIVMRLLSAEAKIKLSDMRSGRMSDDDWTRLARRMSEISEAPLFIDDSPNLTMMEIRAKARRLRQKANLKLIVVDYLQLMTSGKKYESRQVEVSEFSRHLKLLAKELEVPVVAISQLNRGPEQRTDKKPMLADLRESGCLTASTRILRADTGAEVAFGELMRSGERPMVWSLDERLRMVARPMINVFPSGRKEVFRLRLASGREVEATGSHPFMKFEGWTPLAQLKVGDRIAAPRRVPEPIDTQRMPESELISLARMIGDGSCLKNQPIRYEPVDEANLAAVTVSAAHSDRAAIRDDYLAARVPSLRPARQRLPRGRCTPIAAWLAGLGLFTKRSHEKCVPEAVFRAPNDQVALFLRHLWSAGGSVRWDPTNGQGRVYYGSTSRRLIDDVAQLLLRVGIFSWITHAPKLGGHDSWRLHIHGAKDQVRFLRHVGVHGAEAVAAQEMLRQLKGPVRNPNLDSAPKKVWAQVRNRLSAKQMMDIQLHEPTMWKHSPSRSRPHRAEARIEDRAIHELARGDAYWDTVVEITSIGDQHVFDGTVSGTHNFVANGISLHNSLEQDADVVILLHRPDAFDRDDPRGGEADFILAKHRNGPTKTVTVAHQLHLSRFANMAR

[9] = target: T5, Sphingosine 1-phosphate receptor 4; test: Late stage fluorescence dose response cell-based screening assay for antagonists of the Sphingosine 1-Phosphate Receptor 4 (S1P4). [Related pubchem assays: 1524 (Confirmation screen (S1P4 antagonists).), 1510 (Primary screen (S1P4 antagonists).), 1853 (Summary AID (S1P4 antagonists).), 1692 (Dose response screen (S1P4 antagonists).)]
[10] = Luminescent dose response cell-based high throughput screening assay for inhibitors of the Janus kinase 2 mutant JAK2V617F. [Related pubchem assays: 1446 (Primary screen.), 1521 (Confirmation assay.), 1486 (Counter screen.)]
Melanocortin receptor 4 = Melanocortin receptor 4 (Homo sapiens, UniProt P32245); test: MC4R antagonist potency on cAMP, dose response, cell-based, TR-FRET, biased antagonists (AID 602298);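 also: antagonist potency against agonist-stimulated cAMP production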
Fatty acid synthase [11] = target: T3, Fatty acid synthase; test: FAS thioesterase domain inhibitors, dose response, biochemical, endpoint fluorescence intensity, uHTS hits (AID 624327);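 also: fluorescence from hydrolysis of an O-methyl fluorescein acyl ester substrate by the enzyme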
[12] = cytotoxicity in KRAS-transformed pancreatic duct cells, primary screen, cell-based, fluorescence, HTS (AID 431); details: Homo sapiens;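 also: cell line used: HPDE-C7K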
[13] = target: T4, Sphingosine 1-phosphate receptor 1; test: Late-stage fluorescence-based dose-response cell-based counterscreen assay to identify agonists of the Sphingosine 1-Phosphate Receptor 4 (S1P4): Sphingosine 1-Phosphate Receptor 1 (S1P1) antagonist assay.
[14] = target: T5, Sphingosine 1-phosphate receptor 4; test: Late-stage fluorescence-based dose-response cell-based counterscreen assay to identify agonists of the Sphingosine 1-Phosphate Receptor 4 (S1P4): inhibition by S1P4-selective antagonist 11 nM.
[15] = target: T5, Sphingosine 1-phosphate receptor 4; test: (§1) Late-stage fluorescence-based dose-response cell-based counterscreen assay to identify agonists of the Sphingosine 1-Phosphate Receptor 4 (S1P4): inhibition by S1P4-selective antagonist […].
[16] = target: T5, Sphingosine 1-phosphate receptor 4; test: Late-stage fluorescence-based dose-response cell-based counterscreen assay to identify agonists of the Sphingosine 1-Phosphate Receptor 4 (S1P4): inhibition by S1P4-selective antagonist 33 nM.
[17] = target: T7, Sphingosine 1-phosphate receptor 3 (Homo sapiens, UniProt Q99500); test: Late-stage fluorescence-based dose-response cell-based counterscreen assay to identify agonists of the Sphingosine 1-Phosphate Receptor 4 (S1P4): Sphingosine 1-Phosphate Receptor 3 (S1P3) agonist assay Set 2.
[18] = target: T5, Sphingosine 1-phosphate receptor 4; test: Late-stage fluorescence-based dose-response cell-based counterscreen assay to identify agonists of the Sphingosine 1-Phosphate Receptor 4 (S1P4): inhibition by S1P4-selective antagonist 0.4 nM.
[19] = target: T5, Sphingosine 1-phosphate receptor 4; test: Late-stage fluorescence-based dose-response cell-based counterscreen assay to identify agonists of the Sphingosine 1-Phosphate Receptor 4 (S1P4): inhibition by S1P4-selective antagonist control.
[20] = target: T5, Sphingosine 1-phosphate receptor 4; test: as §1; remark: listed apart in the source
[21] = target: T8, Sphingosine 1-phosphate receptor 2 (Homo sapiens, UniProt O95136); test: S1P2 receptor agonists, human, late-stage follow-up, counter-screen for S1P4 agonist project, cell-based, fluorescence, set 2 (AID 504873)
[22] = target: Sphingosine 1-phosphate receptor 5 (Homo sapiens, UniProt Q9H228); test: Late-stage fluorescence-based dose-response cell-based counterscreen assay to identify agonists of the Sphingosine 1-Phosphate Receptor 4 (S1P4): Sphingosine 1-Phosphate Receptor 5 (S1P5) antagonist assay Set 2.
[23] = target: T7, Sphingosine 1-phosphate receptor 3; test: Late-stage fluorescence-based dose-response cell-based counterscreen assay to identify agonists of the Sphingosine 1-Phosphate Receptor 4 (S1P4): Sphingosine 1-Phosphate Receptor 3 (S1P3) antagonist assay Set 2.
[24] = target: T8, Sphingosine 1-phosphate receptor 2; test: Late-stage fluorescence-based dose-response cell-based counterscreen assay to identify agonists of the Sphingosine 1-Phosphate Receptor 4 (S1P4): Sphingosine 1-Phosphate Receptor 2 (S1P2) antagonist assay Set 2.
[25] = target: T4, Sphingosine 1-phosphate receptor 1; test: Late-stage fluorescence-based dose-response cell-based counterscreen assay to identify agonists of the Sphingosine 1-Phosphate Receptor 4 (S1P4): Sphingosine 1-Phosphate Receptor 1 (S1P1) agonist assay Set 2.
[26] = target: T5, Sphingosine 1-phosphate receptor 4; test: Late-stage fluorescence-based dose-response cell-based counterscreen assay to identify agonists of the Sphingosine 1-Phosphate Receptor 4 (S1P4): inhibition by S1P4-selective antagonist 100 nM.
[27] = cytotoxicity of S1P4 agonist candidates, late-stage follow-up, cytotoxicity control for S1P4 agonist project, cell-based, luminescence, dose response, set 2, assay provider (AID 504875)
[28] = target: T5, Sphingosine 1-phosphate receptor 4; test: Late-stage fluorescence dose-response cell-based counterscreen assay to identify agonists of the Sphingosine 1-Phosphate Receptor 4 (S1P4): Sphingosine 1-Phosphate Receptor 4 (S1P4) antagonist assay Set 2.
[29] = target: Neuropeptides B/W receptor type 1 (Homo sapiens, UniProt P48145); test: GPR7 antagonist potency, late-stage follow-up, cell-based, fluorescence, dose response, set 5 (AID 588566)
[30] = target: Melanin-concentrating hormone receptor 1 (Homo sapiens, UniProt Q99705); test: Late-stage fluorescence-based counterscreen for antagonists of the G-protein coupled receptor 7 (GPR7): cell-based dose response assay to identify antagonists of the melanin-concentrating hormone receptor 1 (MCHR1) Set 5.
[31] = Vero cell cytotoxicity, dose response, cytotoxicity control for M. tuberculosis growth inhibitor project, Vero cells, purified and synthesized compounds, set 5 (AID 504909); details: Mycobacterium tuberculosis
[32] = THP-1 cell cytotoxicity, cytotoxicity control, set 4 (AID 504911); details: Mycobacterium tuberculosis

T4 sequence (P21453 whole entry): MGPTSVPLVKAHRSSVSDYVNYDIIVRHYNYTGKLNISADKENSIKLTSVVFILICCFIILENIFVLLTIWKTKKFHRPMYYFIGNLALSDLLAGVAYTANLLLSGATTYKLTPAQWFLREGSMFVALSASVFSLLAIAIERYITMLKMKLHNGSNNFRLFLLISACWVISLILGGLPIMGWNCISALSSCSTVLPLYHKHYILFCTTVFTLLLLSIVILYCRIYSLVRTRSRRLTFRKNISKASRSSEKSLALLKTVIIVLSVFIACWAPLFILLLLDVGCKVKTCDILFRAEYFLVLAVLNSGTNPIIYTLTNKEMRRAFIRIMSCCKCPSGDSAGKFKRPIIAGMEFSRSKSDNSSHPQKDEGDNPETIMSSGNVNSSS
T7 sequence (Q99500 whole entry): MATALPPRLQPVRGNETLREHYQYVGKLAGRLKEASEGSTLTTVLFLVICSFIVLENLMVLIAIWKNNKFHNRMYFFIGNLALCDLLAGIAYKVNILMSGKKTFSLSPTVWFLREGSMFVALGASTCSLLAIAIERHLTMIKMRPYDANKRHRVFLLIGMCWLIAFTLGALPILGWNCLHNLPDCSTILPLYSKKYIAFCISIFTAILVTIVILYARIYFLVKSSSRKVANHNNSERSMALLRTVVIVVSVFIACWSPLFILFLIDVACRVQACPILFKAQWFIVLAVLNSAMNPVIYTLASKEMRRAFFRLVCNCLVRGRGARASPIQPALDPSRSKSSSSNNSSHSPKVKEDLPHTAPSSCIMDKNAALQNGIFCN
T8 sequence (O95136 whole entry): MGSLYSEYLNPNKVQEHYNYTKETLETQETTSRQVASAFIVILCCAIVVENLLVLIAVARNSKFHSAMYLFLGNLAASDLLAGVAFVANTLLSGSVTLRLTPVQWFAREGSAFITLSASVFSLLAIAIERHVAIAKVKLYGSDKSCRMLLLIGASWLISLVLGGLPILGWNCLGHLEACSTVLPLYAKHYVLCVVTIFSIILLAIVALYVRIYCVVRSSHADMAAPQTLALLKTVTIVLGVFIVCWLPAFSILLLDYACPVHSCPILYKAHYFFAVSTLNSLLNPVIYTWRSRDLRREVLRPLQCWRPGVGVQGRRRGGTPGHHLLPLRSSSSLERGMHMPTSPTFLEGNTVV
T3 sequence (P49327 whole entry, the tested form may be a part): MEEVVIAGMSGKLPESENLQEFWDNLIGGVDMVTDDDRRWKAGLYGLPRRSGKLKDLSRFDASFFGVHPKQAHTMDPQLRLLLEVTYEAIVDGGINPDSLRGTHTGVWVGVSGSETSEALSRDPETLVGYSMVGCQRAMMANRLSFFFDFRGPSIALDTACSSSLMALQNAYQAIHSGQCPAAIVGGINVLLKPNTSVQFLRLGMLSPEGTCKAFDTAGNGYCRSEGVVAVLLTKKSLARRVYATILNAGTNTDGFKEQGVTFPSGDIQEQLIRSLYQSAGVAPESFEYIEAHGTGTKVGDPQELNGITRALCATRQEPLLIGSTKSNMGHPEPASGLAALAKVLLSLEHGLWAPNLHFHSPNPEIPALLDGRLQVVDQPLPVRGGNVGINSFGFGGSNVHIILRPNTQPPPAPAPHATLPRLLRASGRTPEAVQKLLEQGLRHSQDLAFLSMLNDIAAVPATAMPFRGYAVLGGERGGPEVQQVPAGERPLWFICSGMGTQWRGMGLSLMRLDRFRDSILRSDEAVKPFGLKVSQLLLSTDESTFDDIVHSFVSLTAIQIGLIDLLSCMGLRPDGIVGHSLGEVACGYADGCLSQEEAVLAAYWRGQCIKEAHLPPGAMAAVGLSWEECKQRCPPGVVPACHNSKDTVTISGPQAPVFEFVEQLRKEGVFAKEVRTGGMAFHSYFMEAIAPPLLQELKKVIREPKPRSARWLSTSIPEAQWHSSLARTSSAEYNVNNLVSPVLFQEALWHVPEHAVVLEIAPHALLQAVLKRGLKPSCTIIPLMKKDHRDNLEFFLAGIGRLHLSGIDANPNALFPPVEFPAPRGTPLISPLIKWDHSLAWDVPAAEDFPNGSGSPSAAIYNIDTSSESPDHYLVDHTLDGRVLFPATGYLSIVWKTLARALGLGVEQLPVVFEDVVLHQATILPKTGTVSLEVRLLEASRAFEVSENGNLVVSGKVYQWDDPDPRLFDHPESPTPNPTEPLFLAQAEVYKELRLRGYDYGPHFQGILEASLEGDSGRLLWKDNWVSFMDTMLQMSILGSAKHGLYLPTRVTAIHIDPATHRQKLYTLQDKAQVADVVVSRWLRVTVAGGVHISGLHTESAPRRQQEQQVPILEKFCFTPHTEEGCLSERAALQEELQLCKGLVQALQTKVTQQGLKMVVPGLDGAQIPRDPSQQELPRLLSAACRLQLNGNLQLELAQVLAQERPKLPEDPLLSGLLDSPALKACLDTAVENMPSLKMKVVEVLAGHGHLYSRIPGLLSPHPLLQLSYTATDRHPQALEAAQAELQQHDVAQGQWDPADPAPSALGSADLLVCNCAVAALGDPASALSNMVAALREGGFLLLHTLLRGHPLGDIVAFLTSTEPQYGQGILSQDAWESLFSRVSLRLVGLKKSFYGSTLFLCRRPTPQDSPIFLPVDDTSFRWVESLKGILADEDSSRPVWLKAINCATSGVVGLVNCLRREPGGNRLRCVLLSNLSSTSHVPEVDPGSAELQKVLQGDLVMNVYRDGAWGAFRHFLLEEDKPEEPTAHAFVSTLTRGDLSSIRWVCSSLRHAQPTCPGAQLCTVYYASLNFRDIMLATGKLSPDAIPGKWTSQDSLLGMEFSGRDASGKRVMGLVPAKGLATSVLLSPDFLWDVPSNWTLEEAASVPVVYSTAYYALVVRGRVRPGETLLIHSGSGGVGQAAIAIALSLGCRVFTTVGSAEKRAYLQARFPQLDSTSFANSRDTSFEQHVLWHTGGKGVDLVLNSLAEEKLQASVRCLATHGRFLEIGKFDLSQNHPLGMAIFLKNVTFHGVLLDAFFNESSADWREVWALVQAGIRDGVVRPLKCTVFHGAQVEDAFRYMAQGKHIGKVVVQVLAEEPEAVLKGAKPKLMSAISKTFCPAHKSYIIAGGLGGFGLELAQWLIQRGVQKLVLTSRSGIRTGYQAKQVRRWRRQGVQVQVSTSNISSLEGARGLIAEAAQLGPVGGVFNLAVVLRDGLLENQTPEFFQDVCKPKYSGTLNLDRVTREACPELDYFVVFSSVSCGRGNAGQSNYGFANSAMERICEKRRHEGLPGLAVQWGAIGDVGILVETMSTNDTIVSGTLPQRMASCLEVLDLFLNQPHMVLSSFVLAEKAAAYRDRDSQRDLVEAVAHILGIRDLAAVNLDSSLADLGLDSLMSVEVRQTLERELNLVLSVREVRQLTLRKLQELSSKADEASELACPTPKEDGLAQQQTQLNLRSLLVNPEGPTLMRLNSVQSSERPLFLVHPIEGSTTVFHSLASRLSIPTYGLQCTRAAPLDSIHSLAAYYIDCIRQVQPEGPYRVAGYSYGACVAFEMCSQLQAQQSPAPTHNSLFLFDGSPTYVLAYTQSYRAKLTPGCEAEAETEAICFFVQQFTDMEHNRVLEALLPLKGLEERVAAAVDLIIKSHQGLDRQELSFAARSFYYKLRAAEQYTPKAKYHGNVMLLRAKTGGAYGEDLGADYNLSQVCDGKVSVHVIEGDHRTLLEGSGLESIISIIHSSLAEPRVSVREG
Sequence of Melanocortin receptor 4 (P32245 whole entry, the tested form may be a part): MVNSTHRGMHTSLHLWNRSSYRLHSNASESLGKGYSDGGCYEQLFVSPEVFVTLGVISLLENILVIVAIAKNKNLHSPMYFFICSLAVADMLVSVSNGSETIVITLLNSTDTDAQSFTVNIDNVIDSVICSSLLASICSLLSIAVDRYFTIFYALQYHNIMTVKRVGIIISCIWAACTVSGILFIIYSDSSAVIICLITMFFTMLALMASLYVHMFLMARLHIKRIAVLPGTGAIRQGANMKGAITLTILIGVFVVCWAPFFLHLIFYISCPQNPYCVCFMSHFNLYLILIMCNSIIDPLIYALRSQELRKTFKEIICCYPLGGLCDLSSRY
Sequence of Melanin-concentrating hormone receptor 1 (Q99705 whole entry): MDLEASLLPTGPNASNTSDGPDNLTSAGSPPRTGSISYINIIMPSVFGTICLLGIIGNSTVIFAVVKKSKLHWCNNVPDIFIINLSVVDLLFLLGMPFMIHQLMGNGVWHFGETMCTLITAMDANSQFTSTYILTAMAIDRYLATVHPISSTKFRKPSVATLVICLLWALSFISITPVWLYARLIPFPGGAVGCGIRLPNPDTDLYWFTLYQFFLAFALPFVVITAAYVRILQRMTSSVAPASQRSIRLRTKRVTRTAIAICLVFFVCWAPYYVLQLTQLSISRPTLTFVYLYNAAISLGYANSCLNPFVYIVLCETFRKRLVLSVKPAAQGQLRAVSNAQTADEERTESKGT
Sequence of Sphingosine 1-phosphate receptor 5 (Q9H228 whole entry): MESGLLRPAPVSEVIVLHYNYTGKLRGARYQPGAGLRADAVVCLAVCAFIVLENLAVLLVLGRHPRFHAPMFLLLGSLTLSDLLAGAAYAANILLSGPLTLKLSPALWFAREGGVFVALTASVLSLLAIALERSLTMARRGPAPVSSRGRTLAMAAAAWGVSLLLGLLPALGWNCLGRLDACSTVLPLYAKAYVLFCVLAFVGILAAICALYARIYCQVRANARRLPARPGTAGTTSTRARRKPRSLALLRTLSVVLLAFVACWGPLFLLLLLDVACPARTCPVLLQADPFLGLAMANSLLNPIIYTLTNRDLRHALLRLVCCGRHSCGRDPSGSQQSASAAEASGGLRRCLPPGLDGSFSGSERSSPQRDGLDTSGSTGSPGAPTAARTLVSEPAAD
Sequence of Neuropeptides B/W receptor type 1 (P48145 whole entry): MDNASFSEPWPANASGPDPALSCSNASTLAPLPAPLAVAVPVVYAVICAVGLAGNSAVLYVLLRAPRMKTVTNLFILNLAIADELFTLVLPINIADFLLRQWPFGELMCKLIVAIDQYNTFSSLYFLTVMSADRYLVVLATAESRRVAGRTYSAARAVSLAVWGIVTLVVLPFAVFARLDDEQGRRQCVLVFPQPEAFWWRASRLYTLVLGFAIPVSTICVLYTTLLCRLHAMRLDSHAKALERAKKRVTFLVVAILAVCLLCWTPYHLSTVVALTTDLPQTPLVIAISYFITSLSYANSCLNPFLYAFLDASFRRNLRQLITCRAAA

Cc1ccccc1CS(=O)(=O)c1nnc([C@H](CC(C)C)NC(=O)OC(C)(C)C)o1
EC50 [1]: 8.56 µM (active)
EC50 (Protein RecA): 11.6 µM (active)
EC50 [2]: > 260 µM (inactive)
IC50 [3]: > 64.6 µM (inactive)
AC50 [4]: 16 µM (active)
IC50 (Fatty acid synthase [5]): 7.36 µM (active)
IC50 [6]: 38.9 µM (not active)
IC50 [7]: 1.2 µM (active)
AC50 [8]: 93.7 µM (active)
IC50 [9]: 2.89 µM (not active)
IC50 [10]: 0.632 µM (active)
IC50 (Melanocortin receptor 4): > 64.6 µM (inactive)
IC50 (Fatty acid synthase [11]): 12.3 µM (active)
EC50 [12]: 11.9 µM (active)

COCC/N=C1\S/C(=C\c2cc(C)n(-c3ccc(F)cc3F)c2C)C(=O)N1C
IC50 [13]: > 25 µM (inactive)
EC50 [14]: > 3.3 µM (inactive)
EC50 [15]: 0.173 µM (active)
EC50 [16]: > 3.3 µM (inactive)
EC50 [17]: > 25 µM (inactive)
EC50 [18]: 0.04 µM (active)
EC50 [19]: 0.0154 µM (active)
EC50 [20]: > 3.3 µM (inactive)
EC50 [21]: > 25 µM (inactive)
IC50 [22]: > 25 µM (inactive)
IC50 [23]: ~8.9 µM (active)
IC50 [24]: 6.76 µM (active)
EC50 [25]: > 25 µM (inactive)
EC50 [26]: > 3.3 µM (inactive)
CC50 [27]: > 10 µM (inactive)
IC50 [28]: > 25 µM (inactive)

COc1ccc(Oc2c(Cl)cnn(CC(=O)C(C)(C)C)c2=O)cc1
IC50 [29]: > 20 µM (inactive)
IC50 [30]: > 20 µM (inactive)

CO[C@H]1/C=C/O[C@@]2(C)Oc3c(C)c(O)c4c(O)c(c(C=NN5CCN(C)CC5)c(O)c4c3C2=O)NC(=O)/C(C)=C\C=C\[C@H](C)[C@H](O)[C@@H](C)[C@@H](O)[C@@H](C)[C@H](OC(C)=O)[C@@H]1C [RIFAMPIN]
CC50 [31]: > 100 µM (active)
CC50 [32]: 79.7 µM (active)
